1 molecule from patent US8835425B2, “Use of selective GABA A α5 negative allosteric modulators for the treatment of central nervous system conditions” (Hoffmann-La Roche Inc., priority 2010, dated 2014) can be followed below.

Data set [1] in a line: 8581 concentration in serum after i.p. injection. In kind it is in vivo, mice. To be noted: ip; for concentration at 0.5 h: 0.5 h after i.p. injection; for concentration at 3 h: 3 h after i.p. injection; for concentration at 7 h: 7 h after i.p. injection; for concentration at 24 h: 24 h after i.p. injection. Here is the method: Table 5. 8581 concentration in serum (ng/ml) of Nf1+/− and control mice 0.5, 3, 7, and 24 hours after i.p. injection

For data set [2], the system named is hippocampus of TS and CO mice. As to the kind of experiment: Hippocampal neurogenesis, granule cell density and GAD+ boutons after chronic treatment. In kind it is in vivo. An excerpt: Alterations in hippocampal morphology such as reductions in granule cell density and hippocampal neurogenesis have also been implicated in the learning deficits shown by Ts65Dn mice. Spatial learning is known to depend on the functional integrity of the hippocampus, a structure that plays a key role in information encoding and retrieving in the CNS. […] Also, neuronal survival of the cells that have undergone maturation was also normalized in TS mice, as shown by the increase in DAPI+ cells found in TS mice after chronic 8581 administration (p=0.026; FIG. 14).

The subject of data set [3] is Nf1+/− mice and control mice (B16;129F1). As to the kind of experiment: Rotarod, accelerating speeds, Nf1+/− and control mice. In kind it is in vivo. The settings on record: Nf1+/− mutant or control mice, 1 mg/kg i.p. Here is the method: Control mice (B16;129F1) and Nf1+/− mice were treated with vehicle or with 8581 (n=10 for each of the 4 groups). 30 minutes after i.p. injection of 8581 (1 mg/kg) or vehicle, mice were tested with a rotarod protocol using accelerating speeds (4-40 rpm, maximal duration 300 s) for four trials with 30 min intertrial interval. FIG. 22 visualizes performance of control mice in the Rotarod and FIG. 23 illustrates the performance of Nf1+/− mice in the Rotarod.
On the technique in general: Falling from the rotarod earlier than controls is read as motor impairment.

A further data set concerns Nf1+/− mice. As to the kind of experiment: Spatial learning of Nf1+/− mice in the Morris water maze. Format: in vivo. The procedure: 1 week after handling, mice were trained with two consecutive trials per day for 8-9 days 30 minutes after i.p. injection of 8581 or vehicle. In each trial, mice were given 60 s to find the platform. After each trial, mice were put on the platform for 15 s. On the day of probe trial (Day 3, Day 5, Day 7, and Day 9) 60 s of probe trial was performed after training. […] Two different measures of spatial learning (% search in quadrant (FIG. 16) and average proximity to the target platform (FIG. 17)) show similarly, that active pharmaceutical compounds used in present invention rescue spatial learning deficits of Nf1+/− mice (CO/veh (n=10), Nf1/veh (n=9), CO/8581 (n=10), and Nf1/8581 (n=11).
Effects of active pharmaceutical compounds used in present invention on the performance of Nf1+/− mice were tested under conditions in which the spatial learning of the mutants was indistinguishable from controls (less extinction due to lower number of probe trials). Mean percentage of time spent in each quadrant during a probe trial in plotted in FIG. 18. Average proximity to the target quadrant is plotted in FIG. 19. […] On probe trial 1 and 2 (days 5 and 7), all groups searched selectively in the target quadrant (p<0.01), and there were no differences between groups.

Where [4] appears, read: B16;129F1, mouse, 0.1 mg/kg, control mice.
Setting [5] is: B16;129F1, mouse, 1 mg/kg, control mice.
Setting [6] is: TS mice, chronic administration.

In data set [1] (setting [4]), `FC(F)c1ncn2c1Cn1ncnc1-c1cc(Br)ccc1-2` [Compound 8581, 3-Bromo-10-difluoromethyl-9H-imidazo[1,5-a][1,2,4]triazolo[1,5-d][1,4]benzodiazepine] displayed a concentration at 0.5 h of 9.45 ± 3.05 ng/mL, a concentration at 3 h of under 0.5 ng/mL, a concentration at 7 h of under 0.5 ng/mL and a concentration at 24 h of under 0.5 ng/mL. In data set [1] (setting [5]), the concentration at 0.5 h came to 271 ± 1 ng/mL, the concentration at 3 h is 11.9 ± 2.51 ng/mL, the concentration at 7 h was under 0.5 ng/mL and the concentration at 24 h is under 0.5 ng/mL. In data set [1] (mouse, 0.1 mg/kg, Nf1+/− mice), this molecule registered a concentration at 0.5 h of 11 ± 1.73 ng/mL, a concentration at 3 h of under 0.5 ng/mL, a concentration at 7 h of under 0.5 ng/mL and a concentration at 24 h of under 0.5 ng/mL. In data set [1] (mouse, 1 mg/kg, Nf1+/− mice), this molecule showed a concentration at 0.5 h of 192 ± 35 ng/mL, a concentration at 3 h of 8.95 ± 0.5 ng/mL, a concentration at 7 h of under 0.5 ng/mL and a concentration at 24 h of under 0.5 ng/mL. Besides, the “number of GABAergic synapses (GAD+) in CO mice” value in data set [2] (CO mice, chronic treatment) is on record as “non-significant tendency to increase”. Also, in data set [2] (setting [6]), the “density of proliferating (Ki67+) cells in hippocampus” value is on record as “completely restored the density of proliferating cells” and the “neuronal survival (DAPI+ cells, granular cell layer)” value was “normalized”. For the same molecule, the “number of GAD positive boutons in hippocampus” value in data set [2] (TS mice, chronic treatment) is on record as “decreased dramatically”. Also, the performance in rotarod result in data set [3] is recorded as “did not affect the performance”. The “performance of Nf1+/− mice under conditions that occlude their behavioral deficits” value with Nf1+/− mice (1 mg/kg) is recorded as “does not affect the performance”. For the same molecule, the “spatial learning deficits of Nf1+/− mice” value with Nf1+/− mice (Nf1+/− mice, 1 mg/kg i.p. 30 minutes before training, probe trials) was “rescued the spatial learning deficits”.
